Marks after values point to notes of the source that are not given here.
Key:
Human dendritic cells [1] = assay: Induction of IL-12 production by DC (ELISA); format: cell-based; conditions: 100 μg, 48 hours
In short: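 Human DCs from three donors, 1.0×10^5 cells/ml, exposed 48 h to 100 μg of 6-base polynucleotides. IL-12 in culture supernatant measured by ELISA. Values given as fold increase over untreated control cells.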

female BALB/C mice [2] = assay: Oral vaccination with hepatitis surface antigen, anti-HbsAg ELISA; format: in vivo; conditions: oral day 0, 7, 14, 450 nm; for IgA total at 1:2 dilution, mean ± SD: gut washes day 21; for Total IgG at 1:32 dilution, mean ± SD: plasma day 21
Procedure: Immunization with recombinant hepatitis B surface antigen combined with N6A or N6B polynucleotide was conducted on 6-8 week old female BALB/C mice (Charles River, St-Constant, Qc, Canada). Each mouse (5 mice per group) has received orally a solution containing: Saline (Group 1), HbsAg 10 μg (Group 2), HbsAg 10 μg+N6A 1 μg (Group 3), HbsAg 10 μg+N6A 10 μg (Group 4), HbsAg 10 μg+N6A 100 μg (Group 5), HbsAg 10 μg+N6B 1 μg (Group 6), HbsAg 10 μg+N6B 10 μg (Group 7) and HbsAg 10 μg+N6B 100 μg (Group 8) in a total volume of 50 μl at day 0, 7 and day 14. Plasma and gut washes were recovered at day 21. Gut washes (for IgA determination) were obtained by gently pipetting 0.2 ml of PBS containing protease inhibitors (10 μg pepstatin, 10 μg leupeptin, 10 μg antipain and 50 μg benzamidine).
Antibodies specific to HbsAg were detected and quantified by ELISA. Briefly, a solid phase of HbsAg protein (1.0 μg per well, overnight at 4° C.) was used to capture anti-HbsAg in the plasma or in the gut washes (1 hour at 37° C.), which were then detected with horseradish peroxidase-conjugated goat anti-mouse IgA (for gut washes) and goat anti-mouse total IgG (for plasma) following the instructions of the manufacturer (Clonetyping system, Southern Biotechnology Inc.). Data are expressed in Table 14 in OD (450 nm) as the mean±SD of 5 mice per group. […]

female BALB/C mice [3] = assay: Vaccination with hepatitis surface antigen (intramuscular), anti-HbsAg end-point dilution ELISA; format: in vivo
Procedure: Immunization with recombinant hepatitis B surface antigen (HbsAg; Cortex Biochemical, San Leandro, Calif., USA) combined with aluminum hydroxide (Alum; SuperFos Biosector, Vedback, Denmark) and/or with N3A, N6A or N6B polynucleotides, was conducted on 6-8 week old female BALB/C mice (Charles River, St-Constant, Qc, Canada). Each mouse (5 mice per group) received a single intramuscular injection into the tibialis muscle of a solution containing: Saline (Group 1), HbsAg 1 μg (Group 2), HbsAg 1 μg+Alum 10 μg (Group 3), HbsAg 1 μg+Alum 10 μg+N3A 10 μg (Group 4), HbsAg 1 μg+Alum 10 μg+N3A 100 μg (Group 5), HbsAg 1 μg+Alum 10 μg+N3B10 μg (Group 6), HbsAg 1 μg+Alum 10 μg+N3B100 μg (Group 7), HbsAg 1 μg+Alum 10 μg+N6A 10 μg (Group 8), HbsAg 1 μg+Alum 10 μg+N6A 100 μg (Group 9), HbsAg 1 μg+Alum 10 μg+N6B 10 μg (Group 10) and HbsAg 1 μg+Alum 10 μg+N6B 100 μg (Group 11) in a total volume of 50 μl at day 0 and day 21. Plasma was recovered at day 31.
Antibodies specific to HbsAg were detected and quantified by end-point dilution assay ELISA. Briefly, a solid phase of HbsAg protein (0.1 μg per well, overnight at 4° C.) was used to capture anti-HbsAg in the plasma (1 hour at 37° C.), which were then detected with horseradish peroxidase-conjugated goat anti-mouse IgG (total), IgG1 and IgG2a following the instructions of the manufacturer (Clonetyping system, Southern Biotechnology Inc., Birmingham, Ala., USA). […] Data are expressed in Table 13 as the mean±SD of 5 mice per group.

Human dendritic cells [4] = assay: OX-2 levels at the DC cell surface (flow cytometry); format: cell-based; conditions: DC from individual A, 48 hours
Procedure: Human dendritic cells were obtained from Clonetics (San Diego, Calif., USA) and were cultured in the medium recommended by Clonetics. DC were obtained from three different individuals (see Table 1). Major histocompatability typing was performed on each of these individuals and several of the HLA (human leukocyte antigens) types are shown.
DC from individual A were seeded in 1.0 ml at 1.0×10^5 cells/ml in 6-well flat-bottomed tissue culture plates for 48 hours with 1, 10 or 100 μg of 6 base N3A or N6A polynucleotides. The level of OX-2 at the cell surface was determined after 48 hours of incubation by flow cytometry using a FITC-conjugated monoclonal antibody directed to OX-2 (BioSPARK, Greenwich, Conn., USA) and analyzed by CELLQuest Pro. […] Results are expressed as the percentage of OX-2^hi DC following treatment.

[5] = HbsAg 10 μg + polynucleotide 1 μg
[6] = HbsAg 10 μg + polynucleotide 10 μg
[7] = HbsAg 10 μg + polynucleotide 100 μg
[8] = HbsAg 1 μg + Alum 10 μg + polynucleotide 10 μg i.m. day 0 and 21, plasma day 31
[9] = HbsAg 1 μg + Alum 10 μg + polynucleotide 100 μg i.m. day 0 and 21, plasma day 31

Substance	IL-12 production by DC (fold increase compared to untreated DC) (Human dendritic cells [1]; DC isolated from individual A)	IL-12 production by DC (fold increase compared to untreated DC) (Human dendritic cells [1]; DC isolated from individual B)	IL-12 production by DC (fold increase compared to untreated DC) (Human dendritic cells [1]; DC isolated from individual C)	IgA total at 1:2 dilution, mean ± SD (female BALB/C mice [2]; [5])	Total IgG at 1:32 dilution, mean ± SD (female BALB/C mice [2]; [5])	IgA total at 1:2 dilution, mean ± SD (female BALB/C mice [2]; [6])	Total IgG at 1:32 dilution, mean ± SD (female BALB/C mice [2]; [6])	IgA total at 1:2 dilution, mean ± SD (female BALB/C mice [2]; [7])	Total IgG at 1:32 dilution, mean ± SD (female BALB/C mice [2]; [7])	End-point titers IgG1, mean ± SD (female BALB/C mice [3]; [8])	End-point titers IgG2a, mean ± SD (female BALB/C mice [3]; [8])	End-point titers IgG total, mean ± SD (female BALB/C mice [3]; [8])	End-point titers IgG1, mean ± SD (female BALB/C mice [3]; [9])	End-point titers IgG2a, mean ± SD (female BALB/C mice [3]; [9])	End-point titers IgG total, mean ± SD (female BALB/C mice [3]; [9])	The percentage of OX-2^hi DC following treatment (Human dendritic cells [4]; 1.0 μg)	The percentage of OX-2^hi DC following treatment (Human dendritic cells [4]; 10.0 μg)	The percentage of OX-2^hi DC following treatment (Human dendritic cells [4]; 100.0 μg)
5′GGGAGG3′ [N6A] (unmodified DNA)	1.0 fold	1.0 fold	1.0 fold	0.662 ± 0.166 OD	0.138 ± 0.055 OD	0.853 ± 0.543 OD	0.141 ± 0.044 OD	0.650 ± 0.276 OD	0.121 ± 0.055 OD	2010 ± 2187	250 ± 257	439 ± 705	6420 ± 2528	291 ± 154	1185 ± 607	64%	62%	64%
5′GGGAGG3′ [N6B] (DNA, backbone not given here; further chemistry not fully specified)	1.3 fold	1.4 fold	4.1 fold	0.549 ± 0.242 OD	0.104 ± 0.030 OD	0.333 ± 0.156 OD	0.225 ± 0.135 OD	0.492 ± 0.074 OD	0.120 ± 0.057 OD	2880 ± 1126	187 ± 46	551 ± 309	3560 ± 1210	205 ± 76	660 ± 364			
5′GGGTGG3′ [N3A]	1.0 fold	1.0 fold	1.0 fold							9300 ± 3365	272 ± 255	849 ± 386	13320 ± 12993	860 ± 719	1985 ± 1748	61%	51** %	51** %
5′GGGTGG3′ [N3B]	5.2 fold	17.3 fold	14.4 fold							3460 ± 1680	120 ± 26	287 ± 142	4460 ± 1884	204 ± 129	437 ± 305			
